Source: patent US7592352B2, “Substituted thieno and furo-pyridines” (SmithKline Beecham Corporation, priority 2003, dated 2009)

What was measured:
Type in all cases: biochemical
Src = target: T1, Src (Homo sapiens, UniProt P12931); assay: Src enzyme assay (HTRF); conditions: N-85 Src, 10 μM ATP, pIC50 = -log10(IC50) in Molar
T1 construct: precede the first globular domain (amino acids 86-536, BR# 455)
Text: The Src enzyme assay used Homogeneous Time Resolved Fluorescence (HTRF) assay technology to measure the enzyme activity. HTRF is based on fluorescence resonance energy transfer between a Europium-labeled phospho-tyrosine antibody (donor) and Allophycocyanin (APC) conjugated to streptavidin (acceptor). This method measured the ability of the purified enzymes to catalyze the transfer of the γ-phosphate from ATP onto tyrosine residues in a biotinylated synthetic peptide. The peptide used for the Src enzyme activity assay was biotin-(6-amino caproic acid)-AAAQQIYGQI-NH2. The enzyme used was baculovirus expressed N-85 Src with the deletion of first 85 amino acids, which precede the first globular domain (amino acids 86-536, BR# 455).
To preactivate enzyme, 180 μM N-85 Src was incubated with 5 mM ATP and 50 mM MgCl2 for 40 min on ice. The preactivated enzyme (0.4 nM final concentration) was then incubated for 30 min at room temperature in either 96-well or 384-well plates containing 200 nM peptide, 10 μM ATP, 0.05 mg/ml MgCl2, and test compound in 0.1 M HEPES pH 7.5. Each reaction was first stopped by the addition of 45 mM EDTA in 0.1 M HEPES pH7.5, then, HTRF reagent was added to measure the signal. After 10 min incubation at room temperature, the plates were read at 665 nm on a Wallac Victor reader with a time delay. The percent inhibition of activity was calculated relative to positive (C1) and negative (C2, EDTA added) control wells using, 100*(1−(U1−C2)/(C1−C2)). The concentration of test compound yielding 50% inhibition was determined using the equation, y=((Vmax*x)/(K+x))+Y2, where “K” was equal to the IC50. The IC50 values were converted to pIC50 values, i.e., −log IC50 in Molar concentration.

human TIE2 = target: T2, human TIE2 (Homo sapiens, UniProt Q02763); assay: TIE-2 enzyme assay (LANCE method); conditions: GST-TIE2, 80 uM ATP, pIC50 = -log10(IC50) in Molar
T2 construct: made in house
T2 sequence (Q02763 762-1104): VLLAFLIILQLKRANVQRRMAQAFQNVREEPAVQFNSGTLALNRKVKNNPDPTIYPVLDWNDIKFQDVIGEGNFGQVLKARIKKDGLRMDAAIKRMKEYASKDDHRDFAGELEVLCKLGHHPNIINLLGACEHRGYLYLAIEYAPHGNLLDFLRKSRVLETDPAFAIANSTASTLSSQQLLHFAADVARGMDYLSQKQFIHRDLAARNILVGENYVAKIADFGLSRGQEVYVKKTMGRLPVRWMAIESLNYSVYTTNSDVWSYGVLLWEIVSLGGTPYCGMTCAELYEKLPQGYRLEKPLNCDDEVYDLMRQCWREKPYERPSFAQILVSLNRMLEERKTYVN
Text: The TIE-2 enzyme assay used the LANCE method (Wallac) and GST-TIE2, baculovirus expressed recombinant constructs of the intracellular domains of human TIE2 (amino acids 762-1104, GenBank Accession # L06139) tagged by GST). The method measured the ability of the purified enzymes to catalyse the transfer of the γ-phosphate from ATP onto tyrosine residues in a biotinylated synthetic peptide, D1-15 (biotin-C6-LEARLVAYEGWVAGKKKamide). This peptide phosphorylation was detected using the following procedure: for enzyme preactivation, GST-TIE2 was incubated for 30 mins at room temperature with 2 mM ATP, 5 mM MgCl2 and 12.5 mM DTT in 22.5 mM HEPES buffer (pH7.4). Preactivated GST-TIE2 was incubated for 30 mins at room temperature in 96 well plates with 1 uM D1-15 peptide, 80 uM ATP, 10 mM MgCl2, 0.1 mg/ml BSA and the test compound (diluted from a 10 mM stock in DMSO, final DMSO concentration was 2.4%) In 1 mM HEPES (pH7.4). The reaction was stopped by the addition of EDTA (final concentration 45 mM). Streptavidin linked-APC (allophycocyanin, Molecular Probe) and Europium-labeled anti-phosphorylated tyrosine antibody (Wallac) were then added at the final concentration of 17 ug/well and 2.1 ug/well, respectively. The APC signal was measured using an ARVO multilabel counter. (Wallac Berthold Japan). The percent inhibition of activity was calculated relative to blank control wells. The concentration of test compound that inhibits 50% of activity (IC50) was interpolated using nonlinear regression (Levernberg-Marquardt) and the equation, y=Vmax (1−x/(K+x))+Y2, where “K” was equal to the IC50. The IC50 values were converted to pIC50 values, i.e., −log IC50 in Molar concentration.

human EphB4 = target: T3, human EphB4 (Homo sapiens, UniProt P54760); assay: EphB4 enzyme assay (Scintillation Proximity Assay); conditions: GST-EphB4, 1 uM ATP, SPA; pIC50 = -log10(IC50) in Molar
T3 construct: human EphB4 (amino acids 600-914, BR # 21454)
T3 sequence (P54760 600-914): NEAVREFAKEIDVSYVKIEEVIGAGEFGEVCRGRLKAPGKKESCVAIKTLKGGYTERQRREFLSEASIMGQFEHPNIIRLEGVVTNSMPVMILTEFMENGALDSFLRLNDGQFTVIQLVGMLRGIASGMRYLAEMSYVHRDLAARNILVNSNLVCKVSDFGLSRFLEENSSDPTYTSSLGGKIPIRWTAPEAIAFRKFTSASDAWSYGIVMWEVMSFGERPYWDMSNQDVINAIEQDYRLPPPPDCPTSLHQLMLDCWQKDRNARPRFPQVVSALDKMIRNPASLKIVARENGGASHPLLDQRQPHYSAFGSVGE
Method: The EphB4 enzyme assay used Scintillation Proximity Assay technology to measure enzyme activity. This method measured the ability of the purified enzymes to catalyse the transfer of the γ-phosphate from ATP onto tyrosine residues in a biotinylated synthetic peptide. […] Each reaction was stopped by the addition of 0.1 mg Streptavidin SPA beads in 100 mM EDTA/1×PBS, pH 7.2. The signal was measured using a Wallac Trilux scintillation counter (Wallac). The percent inhibition of activity was calculated relative to positive (C1) and negative (C2) control wells using, 100*(1−(U1−C2)/(C1−C2)). The concentration of test compound was determined using the equation, y=((Vmax*x)/(K+x))+Y2, where “K” was equal to the IC50. The IC50 values were converted to pIC50 values, i.e., −log IC50 in Molar concentration.

VEGFR-2 = target: T4, VEGFR-2 (Homo sapiens, UniProt P35968); assay: VEGFR-2 enzyme assay (LANCE method); conditions: GST-VEGFR2, 75 uM ATP, pIC50 = -log10(IC50) in Molar
T4 construct: GST-VEGFR2, baculovirus expressed recombinant constructs of the intracellular domains; made in house
T4 sequence (P35968 786-1356 limits assumed): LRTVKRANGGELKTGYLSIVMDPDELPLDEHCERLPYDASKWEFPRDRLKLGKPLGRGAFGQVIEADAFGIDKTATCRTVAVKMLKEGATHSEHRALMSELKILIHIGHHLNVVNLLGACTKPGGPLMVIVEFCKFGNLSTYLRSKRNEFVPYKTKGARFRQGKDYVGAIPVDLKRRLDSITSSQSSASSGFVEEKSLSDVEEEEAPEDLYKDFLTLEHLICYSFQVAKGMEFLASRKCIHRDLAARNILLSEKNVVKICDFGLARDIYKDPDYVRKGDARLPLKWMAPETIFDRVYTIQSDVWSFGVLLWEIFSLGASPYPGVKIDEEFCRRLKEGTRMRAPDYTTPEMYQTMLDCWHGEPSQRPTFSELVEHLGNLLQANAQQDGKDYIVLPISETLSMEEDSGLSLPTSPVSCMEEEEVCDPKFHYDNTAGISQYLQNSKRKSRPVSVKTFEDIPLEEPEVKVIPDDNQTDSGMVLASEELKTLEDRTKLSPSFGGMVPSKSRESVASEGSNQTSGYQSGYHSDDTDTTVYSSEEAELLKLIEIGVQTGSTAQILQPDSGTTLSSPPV
Method: The VEGF enzyme assay used the LANCE method (Wallac) and GST-VEGFR2, baculovirus expressed recombinant constructs of the intracellular domains of human […] tagged by GST. […] The reaction was stopped by the addition of EDTA (final concentration 50 mM). […] The APC signal was measured using an ARVO multilabel counter (Wallac Berthold, Japan). The percent inhibition of activity was calculated relative to blank control wells. […] The IC50 values were converted to pIC50 values, i.e., −log IC50 in Molar concentration.

T1 sequence (P12931 86-536): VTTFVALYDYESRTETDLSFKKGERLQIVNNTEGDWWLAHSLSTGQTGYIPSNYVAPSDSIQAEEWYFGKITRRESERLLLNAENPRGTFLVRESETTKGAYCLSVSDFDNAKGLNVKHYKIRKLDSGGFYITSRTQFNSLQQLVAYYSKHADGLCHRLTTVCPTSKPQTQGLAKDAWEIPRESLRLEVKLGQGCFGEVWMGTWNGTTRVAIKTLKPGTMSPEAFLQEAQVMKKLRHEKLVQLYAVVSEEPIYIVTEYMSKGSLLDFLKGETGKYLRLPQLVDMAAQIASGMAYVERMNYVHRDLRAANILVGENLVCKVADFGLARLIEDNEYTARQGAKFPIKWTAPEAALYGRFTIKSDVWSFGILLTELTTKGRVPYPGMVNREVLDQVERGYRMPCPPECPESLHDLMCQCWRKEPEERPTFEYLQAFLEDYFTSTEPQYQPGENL

SMILES | IC50 (Src) [nM] | IC50 (human TIE2) [nM] | IC50 (human EphB4) [nM] | IC50 (VEGFR-2) [nM]
Nc1ncc(-c2cccc(Cl)c2)c2occ(-c3ccc(NC(=O)Nc4cc(C(F)(F)F)ccc4F)cc3)c12 [Ia] | 10.2 to 100 | – | – | –
COc1cc(-c2cnc(N)c3c(-c4ccc5[nH]ccc5c4)csc23)cc(OC)c1OC [Iaa, 4-Amino-3 (1H-Indol-5-yl)-7-(3,4,5-trimethoxyphenyl)-thieno[3,2-c]pyridine] | – | 102 to 1000 | – | –
Nc1nccc2occ(-c3ccc(NC(=O)Nc4cc(C(F)(F)F)ccc4F)cc3)c12 [Ib] | 102 to 1000 | 10.2 to 100 | 3.24 to 31.6 | 3.24 to 31.6
Nc1ncc(-c2cccc(S(N)(=O)=O)c2)c2occ(-c3ccc(NC(=O)Nc4cc(C(F)(F)F)ccc4F)cc3)c12 [Id] | 1 to 10 | 1 to 10 | 0.316 to 3.16 | –
Nc1ncc(-c2cccnc2)c2occ(-c3ccc(NC(=O)Nc4cc(C(F)(F)F)ccc4F)cc3)c12 [Ie] | – | – | – | 0.316 to 3.16
